Common to all, as to experiment: MIC assay
Type in all cases: cell-based, Saccharomyces cerevisiae

Assay [1] relates to S. cerevisiae fks1-1 pcr1 (fks2-1): MY2256, YFK0996-11B, MY2259, MY2260. The note with it: less than 10% growth, 42 hours. As to the method:
(§1) The sensitivities of pcr1(fks2-1) fks1-1 and pcr1(fks2-1) FKS1 strains to L-733,560, L-636,947 (Aculeacin), and L-687,781 (Dihydropapulocandin) were determined in MIC assays. Briefly, strains were grown to stationary phase in 5.0 ml of liquid YPAD medium. MY2256 precultures were grown in liquid YPAD10Ca. MIC assays were performed in flat well microtiter plates in triplicate. Each well of the microtiter plate was filled with 100 mcL of YPAD medium. To the first well, 100 mcL of a 4× solution of drug in YPAD medium was added. To serve as a control, a stock solution of […] of YPAD was made. 100 mcL of this solution was added to the initial well for strains grown in the presence of solvent but the absence of drug. Two-fold serial dilutions of the drug were performed down the plate.
(§2) Cultures were diluted to 5×10^5 cells/ml in YPAD (1 OD660 =3.3×10^7 cells/ml). 100 mcL of diluted culture was added to each well, resuspended, and incubated at 28° C. After 42 hours, cultures were resuspended and cells densities measured in an SLT Laboratories 340 ATTC microtiter plate reader. The MICs concentrations presented in the table below represent the concentrations of drug that result in less than 10% growth of the strain grown in the absence of drug.

Assay [2] relates to S. cerevisiae wild type YFK0005. To be noted: less than 10% growth of no-drug control, 42 hours, 28° C. The protocol: as §1, §2
In assay [3] the test system is S. cerevisiae fks1-1 PCR1 YFK0688-14B. The note with it: less than 10% growth of no-drug control, 42 hours, 28° C. As to the method: as §1, §2
For assay [4], the system named is S. cerevisiae FKS1 pcr1 (fks2-1): MY2257, MY2258. The note with it: less than 10% growth, 42 hours. As to the method:
as §1, §2

In general, MIC refers to the smallest concentration in the dilution series that meets the test's criterion for growth inhibition. Read a high MIC as weaker potency. Turning to dihydropapulacandin [L-687,781], the “MIC” value was greater than 40 µg/mL in assay [1], 40 µg/mL in assay [2], 10 µg/mL in assay [3] and greater than 40 µg/mL in assay [4].

These data come from patent US5821353A, “DNA encoding 1,3 beta-D glucan synthase subunits” (Merck & Co., Inc., priority 1996, dated 1998).
